Test results published in patent US8269026B2, “Lupane derivatives useful for treating HIV” (priority 2008, dated 2012).

test system: HIV-1 (HIVIIIB) replication in MT2 cell line; test: HIV-1 replication in MT2 cell line with and without 30% human serum (viral RT activity in supernatant); assay type: cell-based; conditions: Human immunodeficiency virus 1, MT2 cells, with 30% human serum, average IC50 if tested more than once, read-out: MT2 (HIVIIIB) with HS 30% IC50 range
How it was run: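 Read-out is supernatant reverse transcriptase activity on day 5 post-infection, giving IC50 and IC90. Compounds were titrated in complete medium ± 30% human serum, re-dosed after 3 days, on MT2 cells exposed for 3 h to HIVIIIB at MOI 0.5 then washed.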

Row | Structure (SMILES) | IC50 [nM]
1 | CC(C)C1=C2C3CCC4[C@@]5(C)CC[C@H](OC(=O)CC(C)(C)C(=O)O)C(C)(C)C5CC[C@@]4(C)[C@]3(C)CC[C@@]2(NC(=O)OCCN2CCCC2)CC1=O (stereo partly drawn) [20-23, 3β-O-(3′,3′-Dimethylsuccinyl)-17β-(2-pyrrolidin-1-ethoxycarbonylamino)-21-oxolup-18-ene] | < 199
2 | CC(C)C1=C2C3CCC4[C@@]5(C)CC[C@H](OC(=O)CC(C)(C)C(=O)O)C(C)(C)C5CC[C@@]4(C)[C@]3(C)CC[C@@]2(NC(=O)NCC2CCC(F)(F)CC2)CC1=O (stereo partly drawn) [17-60, 3β-O-(3′,3′-Dimethylsuccinyl)-17β-[N′-(4,4-difluoro-cyclohexyl-methyl)ureido]-21-oxolup-18-ene] | < 199
3 | Cc1cncc(C(=O)N[C@@]23CC[C@]4(C)[C@H](CC[C@@H]5[C@@]6(C)CC[C@H](OC(=O)CC(C)(C)C(=O)O)C(C)(C)[C@@H]6CC[C@]54C)C2=C(C(C)C)C(=O)C3)c1 [19-47, 3β-O-(3′,3′-Dimethylsuccinyl)-17β-(5-methylpyridin-3-yl)amido-21-oxolup-18-ene] | < 199
4 | Cc1ccccc1C(=O)N[C@@]12CC[C@]3(C)[C@H](CC[C@@H]4[C@@]5(C)CC[C@H](OC(=O)CC(C)(C)C(=O)O)C(C)(C)[C@@H]5CC[C@]43C)C1=C(C(C)C)C(=O)C2 [19-45, 3β-O-(3′,3′-Dimethylsuccinyl)-17β-(2-methylbenzamido)-21-oxolup-18-ene] | < 199
5 | CC(C)C1=C2[C@H]3CC[C@@H]4[C@@]5(C)CC[C@H](OC(=O)CC(C)(C)C(=O)O)C(C)(C)[C@@H]5CC[C@@]4(C)[C@]3(C)CC[C@@]2(NC(=O)c2cncn2C)CC1=O [19-18, 3β-O-(3′,3′-Dimethylsuccinyl)-17β-(1-methyl-1H-imidazole-5-amido)-21-oxolup-18-ene] | < 199
6 | CC(C)C1=C2C3CCC4[C@@]5(C)CC[C@H](OC(=O)CC(C)(C)C(=O)O)C(C)(C)C5CC[C@@]4(C)[C@]3(C)CC[C@@]2(NC(=O)NC2CCCCC2)CC1=O (stereo partly drawn) [17-7, 3β-O-(3′,3′-Dimethylsuccinyl)-17β-[N′-(cyclohexyl)ureido]-21-oxolup-18-ene] | < 199
7 | CC(C)C1=C2[C@H]3CC[C@@H]4[C@@]5(C)CC[C@H](OC(=O)CC(C)(C)C(=O)O)C(C)(C)C5CC[C@@]4(C)[C@]3(C)CC[C@@]2(NC(=O)Nc2cnn(C)c2)CC1=O (stereo partly drawn) [17-37, 3β-O-(3′,3′-Dimethylsuccinyl)-17β-[N′-(1-methyl-1H-pyrazol-4-yl)ureido]-21-oxolup-18-ene] | < 199
8 | CC(C)C1=C2[C@H]3CC[C@@H]4[C@@]5(C)CC[C@H](OC(=O)CC(C)(C)C(=O)O)C(C)(C)[C@@H]5CC[C@@]4(C)[C@]3(C)CC[C@@]2(NC(=O)Nc2ccncc2)CC1=O [17-26, 3β-O-(3′,3′-Dimethylsuccinyl)-17β-(N′-pyridin-4-yl-ureido)-21-oxolup-18-ene] | < 199
9 | CC(C)C1=C2[C@H]3CC[C@@H]4[C@@]5(C)CC[C@H](OC(=O)[C@H]6CC[C@@](C)(C(=O)O)C6(C)C)C(C)(C)[C@@H]5CC[C@@]4(C)[C@]3(C)CC[C@@]2(NC(=O)OC(C)(C)C)CC1=O [14-3, 3β-O-[(1′R,3′S)-1′,2′,2′-Trimethyl-cyclopentane-3′-carboxylic acid-1′-carboxyl]-17β-[N-tert-butyloxycarbonyl-amino]-21-oxolup-18-ene] | < 199
10 | CC(C)C1=C2C3CCC4[C@@]5(C)CC[C@H](OC(=O)CC(C)(C)C(=O)O)C(C)(C)C5CC[C@@]4(C)[C@]3(C)CC[C@@]2(NC(=O)Nc2cccnc2)CC1=O (stereo partly drawn) [17-6, 3β-O-(3′,3′-Dimethylsuccinyl)-17β-[N′-(pyridin-3-yl)ureido]-21-oxolup-18-ene] | < 199
11 | Cc1nnc(C(=O)N[C@@]23CC[C@]4(C)[C@H](CC[C@@H]5[C@@]6(C)CC[C@H](OC(=O)CC(C)(C)C(=O)O)C(C)(C)[C@@H]6CC[C@]54C)C2=C(C(C)C)C(=O)C3)o1 [19-4, 3β-O-(3′,3′-Dimethylsuccinyl)-17β-(5-methyl-[1,3,4]oxadiazole-2-amido)-21-oxolup-18-ene] | < 199
12 | CC(C)C1=C2[C@H]3CC[C@@H]4[C@@]5(C)CC[C@H](OC(=O)CC(C)(C)C(=O)O)C(C)(C)[C@@H]5CC[C@@]4(C)[C@]3(C)CC[C@@]2(NC(=O)NCc2nncn2C)CC1=O [17-74, 3β-O-(3′,3′-Dimethylsuccinyl)-17β-[N′-(4-methyl-4H-[1,2,4]triazol-3-yl-methyl)-ureido]-21-oxolup-18-ene] | > 1000
13 | CC(C)C1=C2C3CCC4[C@@]5(C)CC[C@H](OC(=O)CC(C)(C)C(=O)O)C(C)(C)C5CC[C@@]4(C)[C@]3(C)CC[C@@]2(NC(=O)OCC2CCCN(C)C2)CC1=O (stereo partly drawn) [20-19, 3β-O-(3′,3′-Dimethylsuccinyl)-17β-(1-methylpiperidine-3-methoxycarbonylamino)-21-oxolup-18-ene] | < 199
14 | CC(C)C1=C2C3CCC4[C@@]5(C)CC[C@H](OC(=O)CC(C)(C)C(=O)O)C(C)(C)C5CC[C@@]4(C)[C@]3(C)CC[C@@]2(NC(=O)OC[C@@H]2CCCN2C)CC1=O (stereo partly drawn) [20-20, 3β-O-(3′,3′-Dimethylsuccinyl)-17β-((S)1-methylpyrrolidine-2-methoxycarbonylamino)-21-oxolup-18-ene] | < 199
15 | CC(C)C1=C2[C@H]3CC[C@@H]4[C@@]5(C)CC[C@H](OC(=O)CC(C)(C)C(=O)O)C(C)(C)[C@@H]5CC[C@@]4(C)[C@]3(C)CC[C@@]2(NC(=O)c2cccc(F)c2)CC1=O [19-12, 3β-O-(3′,3′-Dimethylsuccinyl)-17β-(3-fluorobenzamido)-21-oxolup-18-ene] | < 199
16 | Cc1cccc(C(=O)N[C@@]23CC[C@]4(C)[C@H](CC[C@@H]5[C@@]6(C)CC[C@H](OC(=O)CC(C)(C)C(=O)O)C(C)(C)[C@@H]6CC[C@]54C)C2=C(C(C)C)C(=O)C3)c1 [19-44, 3β-O-(3′,3′-Dimethylsuccinyl)-17β-(3-methylbenzamido)-21-oxolup-18-ene] | < 199
17 | CC(C)C1=C2[C@H]3CC[C@@H]4[C@@]5(C)CC[C@H](OC(=O)CC(C)(C)C(=O)O)C(C)(C)[C@@H]5CC[C@@]4(C)[C@]3(C)CC[C@@]2(NC(=O)Nc2ccccn2)CC1=O [17-25, 3β-O-(3′,3′-Dimethylsuccinyl)-17β-(N′-pyridin-2-yl-ureido)-21-oxolup-18-ene] | < 199
18 | CC(C)C1=C2C3CCC4[C@@]5(C)CC[C@H](OC(=O)CC(C)(C)C(=O)O)C(C)(C)C5CC[C@@]4(C)[C@]3(C)CC[C@@]2(NC(=O)NCc2ccncn2)CC1=O (stereo partly drawn) [17-52, 3β-O-(3′,3′-Dimethylsuccinyl)-17β-[N′-(pyrimidin-4-ylmethyl)ureido]-21-oxolup-18-ene] | < 199
19 | CC(C)C1=C2[C@H]3CC[C@@H]4[C@@]5(C)CC[C@H](OC(=O)CC(C)(C)C(=O)O)C(C)(C)[C@@H]5CC[C@@]4(C)[C@]3(C)CC[C@@]2(NC(=O)c2nccs2)CC1=O [19-21, 3β-O-(3′,3′-Dimethylsuccinyl)-17β-(1,3-thiazole-2-amido)-21-oxolup-18-ene] | < 199
20 | CC(C)C1=C2[C@H]3CC[C@@H]4[C@@]5(C)CC[C@H](OC(=O)CC(C)(C)C(=O)O)C(C)(C)[C@@H]5CC[C@@]4(C)[C@]3(C)CC[C@@]2(NC(=O)CN2CCCC2)CC1=O [19-38, 3β-O-(3′,3′-Dimethylsuccinyl)-17β-(2-pyrrolidin-1-yl-acetamido)-21-oxolup-18-ene] | < 199
21 | CC(C)C1=C2C3CCC4[C@@]5(C)CC[C@H](OC(=O)CC(C)(C)C(=O)O)C(C)(C)C5CC[C@@]4(C)[C@]3(C)CC[C@@]2(NC(=O)OCC2CCN(C)C2)CC1=O (stereo partly drawn) [20-21, 3β-O-(3′,3′-Dimethylsuccinyl)-17β-(1-methylpyrrolidine-3-methoxycarbonylamino)-21-oxolup-18-ene] | < 199
22 | CC(C)C1=C2[C@H]3CC[C@@H]4[C@@]5(C)CC[C@H](OC(=O)CC(C)(C)C(=O)O)C(C)(C)[C@@H]5CC[C@@]4(C)[C@]3(C)CC[C@@]2(NC(=O)[C@H]2CCCCN2C)CC1=O [19-66, 3β-O-(3′,3′-Dimethylsuccinyl)-17β-((R)-1-methylpiperidine-2-amido)-21-oxolup-18-ene] | < 199
23 | CN[C@@]12CC[C@]3(C)[C@H](CC[C@@H]4[C@@]5(C)CC[C@H](OC(=O)CC(C)(C)C(=O)O)C(C)(C)[C@@H]5CC[C@]43C)C1=C(C(C)C)C(=O)C2 [16-2, 3β-O-(3′,3′-Dimethylsuccinyl)-17β-(methylamino)-21-oxolup-18-ene] | < 199
24 | CC(C)C1=C2[C@H]3CC[C@@H]4[C@@]5(C)CC[C@H](OC(=O)CC(C)(C)C(=O)O)C(C)(C)[C@@H]5CC[C@@]4(C)[C@]3(C)CC[C@@]2(NC(=O)N2CCN(C(C)C)CC2)CC1=O [17-29, 3β-O-(3′,3′-Dimethylsuccinyl)-17β-[(4-isopropyl-piperazine-1-carbonyl)-amino]-21-oxolup-18-ene] | < 199
25 | CC(=O)N1CCC(NC(=O)N[C@@]23CC[C@]4(C)C(CCC5[C@@]6(C)CC[C@H](OC(=O)CC(C)(C)C(=O)O)C(C)(C)C6CC[C@]54C)C2=C(C(C)C)C(=O)C3)CC1 (stereo partly drawn) [17-11, 3β-O-(3′,3′-Dimethylsuccinyl)-17β-[N′-(1-acetyl-piperidin-4-yl)-ureido]-21-oxolup-18-ene] | < 199
26 | CC(C)C1=C2C3CCC4[C@@]5(C)CC[C@H](OC(=O)CC(C)(C)C(=O)O)C(C)(C)C5CC[C@@]4(C)[C@]3(C)CC[C@@]2(NC(=O)NCc2ccsc2)CC1=O (stereo partly drawn) [17-75, 3β-O-(3′,3′-Dimethylsuccinyl)-17β-[N′-(thiophen-3-ylmethyl)-ureido]-21-oxolup-18-ene] | < 199

same assay, conditions: Human immunodeficiency virus 1, MT2 cells, without human serum, average IC50 if tested more than once, read-out: MT2 (HIVIIIB) IC50 range

Row | Structure (SMILES) | IC50 [nM]
27 | CC(C)C1=C2C3CCC4[C@@]5(C)CC[C@H](OC(=O)CC(C)(C)C(=O)O)C(C)(C)C5CC[C@@]4(C)[C@]3(C)CC[C@@]2(NC(=O)Nc2cccnc2)CC1=O (stereo partly drawn) [17-6, 3β-O-(3′,3′-Dimethylsuccinyl)-17β-[N′-(pyridin-3-yl)ureido]-21-oxolup-18-ene] | < 199
28 | Cc1nnc(C(=O)N[C@@]23CC[C@]4(C)[C@H](CC[C@@H]5[C@@]6(C)CC[C@H](OC(=O)CC(C)(C)C(=O)O)C(C)(C)[C@@H]6CC[C@]54C)C2=C(C(C)C)C(=O)C3)o1 [19-4, 3β-O-(3′,3′-Dimethylsuccinyl)-17β-(5-methyl-[1,3,4]oxadiazole-2-amido)-21-oxolup-18-ene] | < 199

same assay, conditions: MT2 cells, with 30% human serum, average IC50 if tested more than once, read-out: MT2 (HIVIIIB) with HS 30% IC50 range

Row | Structure (SMILES) | IC50 [nM]
29 | CC(C)C1=C2C3CCC4[C@@]5(C)CC[C@H](OC(=O)CC(C)(C)C(=O)O)C(C)(C)C5CC[C@@]4(C)[C@]3(C)CC[C@@]2(NC(=O)C2CC3CCC(C2)O3)CC1=O (stereo partly drawn) [19-71, 3β-O-(3′,3′-Dimethylsuccinyl)-17β-(8α-oxa-bicyclo[3.2.1]octane-3-amido)-21-oxolup-18-ene] | < 199
